# ChEMBL document CHEMBL1201862, “PubChem BioAssay data set” (2004)
#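 Five compound concentrations were applied to cells in 96-well plates for 48 hours; endpoints were derived by simple linear interpolation of the resulting dose-response curve. At the GI50, growth is halved.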 Calls of active or inactive are those of the source. Cut-off read from the data, not from the text of the source: active = GI50 up to about 1.1 µM and inactive = higher.
# Experiments:
# Test in all cases: NCI-60 cell line screen, 48 h
# [1] = tested on: 786-0
# [2] = tested on: SK-OV-3
# [3] = tested on: SF-268
# [4] = tested on: IGROV-1
# [5] = tested on: UACC-62
# [6] = tested on: HOP-62
# [7] = tested on: SR
# [8] = tested on: HCT-15
# [9] = tested on: CAKI-1
# [10] = tested on: OVCAR-4
# [11] = tested on: SW-620
# [12] = tested on: UACC-257
# [13] = tested on: OVCAR-5
# [14] = tested on: OVCAR-3
# [15] = tested on: HCC 2998
# [16] = tested on: NCI-H460
# [17] = tested on: HT-29
# [18] = tested on: LOX IMVI
# [19] = tested on: SF-539
# [20] = tested on: NCI-H23
# [21] = tested on: RXF 393
# [22] = tested on: OVCAR-8
# [23] = tested on: NCI-H226
# [24] = tested on: RPMI-8226
# [25] = tested on: SN12C
# [26] = tested on: ACHN
# [27] = tested on: Malme-3M
# [28] = tested on: TK-10
# [29] = tested on: HL-60
# [30] = tested on: SK-MEL-2
# [31] = tested on: A549
# [32] = tested on: LXFL 529
# [33] = tested on: M14
# [34] = tested on: CCRF-CEM
# [35] = tested on: KM12
# [36] = tested on: KM-20L2
# [37] = tested on: SK-MEL-28
# [38] = tested on: COLO 205
# [39] = tested on: DMS-114
# [40] = tested on: A498
# [41] = tested on: HOP-92
# [42] = tested on: DLD-1
# [43] = tested on: U-251
# [44] = tested on: SNB-75
# [45] = tested on: HCT-116
# [46] = tested on: MOLT-4
# [47] = tested on: SK-MEL-5
# [48] = tested on: SNB-78
# [49] = tested on: RXF 631
# [50] = tested on: SF-295
# [51] = tested on: SNB-19
# [52] = tested on: NCI-H522
# [53] = tested on: UO-31
# [54] = tested on: K562
# [55] = tested on: EKVX
compound,measurement,setting,value
O=C(CCCNC(=O)OCc1ccccc1)OCc1ccc2c(c1)C(=O)c1ccccc1C2=O,GI50,[1],25.3 µM (inactive)
same,GI50,[2],29.6 µM (inactive)
same,GI50,[3],53.8 µM (inactive)
same,GI50,[4],48.9 µM (inactive)
same,GI50,[5],> 100 µM (inactive)
same,GI50,[6],30.6 µM (inactive)
same,GI50,[7],> 100 µM (inactive)
same,GI50,[8],> 100 µM
same,GI50,[9],> 56.8 µM (inactive)
same,GI50,[10],> 100 µM (inactive)
same,GI50,[11],> 100 µM (inactive)
same,GI50,[12],> 100 µM (inactive)
same,GI50,[13],> 100 µM (inactive)
same,GI50,[14],> 100 µM (inactive)
same,GI50,[15],> 100 µM (inactive)
same,GI50,[16],> 100 µM (inactive)
same,GI50,[17],> 100 µM (inactive)
same,GI50,[18],> 100 µM (inactive)
same,GI50,[19],23.1 µM (inactive)
same,GI50,[20],45.6 µM (inactive)
same,GI50,[21],22.2 µM (inactive)
same,GI50,[22],47.9 µM (inactive)
same,GI50,[23],5.46 µM (inactive)
same,GI50,[24],> 100 µM (inactive)
same,GI50,[25],> 10.2 µM (inactive)
same,GI50,[26],> 100 µM (inactive)
same,GI50,[27],> 100 µM (inactive)
same,GI50,[28],34.8 µM (inactive)
same,GI50,[29],> 100 µM (inactive)
same,GI50,[30],> 89.7 µM (inactive)
same,GI50,[31],> 100 µM (inactive)
same,GI50,[32],> 100 µM (inactive)
same,GI50,[33],> 100 µM (inactive)
same,GI50,[34],> 100 µM (inactive)
same,GI50,[35],> 100 µM (inactive)
same,GI50,[36],> 100 µM (inactive)
same,GI50,[37],> 100 µM (inactive)
same,GI50,[38],> 7.6 µM (inactive)
same,GI50,[39],> 97.1 µM (inactive)
same,GI50,[40],27.2 µM (inactive)
same,GI50,[41],36.6 µM (inactive)
same,GI50,[42],> 100 µM (inactive)
same,GI50,[43],86.1 µM (inactive)
same,GI50,[44],20 µM (inactive)
same,GI50,[45],> 100 µM (inactive)
same,GI50,[46],> 100 µM (inactive)
same,GI50,[47],> 30.7 µM (inactive)
same,GI50,[48],38.4 µM (inactive)
same,GI50,[49],> 78.7 µM (inactive)
same,GI50,[50],11.3 µM (inactive)
same,GI50,[51],51.4 µM (inactive)
same,GI50,[52],> 100 µM (inactive)
same,GI50,[53],> 100 µM (inactive)
same,GI50,[54],> 100 µM (inactive)
same,GI50,[55],> 100 µM (inactive)
